Values of other authors in PMC4282593 (Cancer chemotherapy and pharmacology, 2014).

Tested on: recurrent/refractory NBs
Details: ref [23]

C[C@]12O[C@H](C[C@]1(O)CO)n1c3ccccc3c3c4c(c5c6ccccc6n2c5c31)CNC4=O [lestaurtinib]
patients with durable responses (8/16 patients treated at a biologically effective dose): 50%
side effects (Phase 1 clinical trial in NB patients): limited to mild, including reversible liver transaminase elevations
duration of durable responses, on average (patients treated at a biologically effective dose): more than 10 months
